The first assay deals with human hepatoma Huh-7 cell line harboring a HCV replicon. As to the kind of experiment: HCV replicon assay (inhibition of viral replication, luciferase readout). The format is cell-based. To be noted: Hepatitis C virus, 72 h, Huh-7 HCV replicon cells, 3 days incubation. Summed up:
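Huh-7 replicon cells were exposed to 10-point 3-fold compound dilutions (0.44% DMSO) for 3 days at 37 °C. Replicon replication was read by Dual-Glo luciferase, with background from protease-inhibitor wells subtracted, and viability by calcein AM. EC50/CC50 came from a Hill-equation fit versus DMSO controls.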
(A replicon is a self-replicating genome or part of one, used to study replication in cells.)
A word on the inhibition: it is the share of the control response that was lost under treatment. Consider `CC(C)(C)C#Cc1cc(N(C(=O)[C@H]2CC[C@H](C)CC2)[C@H]2CC[C@@H](Oc3ncccn3)CC2)c(C(=O)O)s1` [Compound 181, 5-(3,3-Dimethylbut-1-ynyl)-3-(4-methyl-N-(4-(pyrimidin-2-yloxy)cyclohexyl)cyclohexanecarboxamido)thiophene-2-carboxylic acid], for which testing at 2 µM gave an inhibition of 98.3%.

For the compound `CC(C)(C)C#Cc1cc(N(C(=O)[C@H]2CC[C@H](C)CC2)[C@H]2C[C@@H](Oc3ccccn3)C2)c(C(=O)O)s1` [Compound 146, 5-(3,3-Dimethylbut-1-ynyl)-3-(4-methyl-N-(3-(pyridin-2-yloxy)cyclobutyl)cyclohexanecarboxamido)thiophene-2-carboxylic acid], the inhibition at 2 µM stood at 99.2%.

For the compound `CC(C)(C)C#Cc1cc(N(C(=O)[C@H]2CC[C@H](C)CC2)[C@H]2CCN(S(=O)(=O)c3ccccn3)C2)c(C(=O)O)s1` [Compound 215, 5-(3,3-Dimethyl-but-1-ynyl)-3-{(4-methyl-cyclohexanecarbonyl)-[1-(pyridine-2-sulfonyl)-pyrrolidin-3-yl]-amino}-thiophene-2-carboxylic acid], at 2 µM the inhibition was 100%.

`CC(C)(C)C#Cc1cc(N(C(=O)[C@H]2CC[C@H](C)CC2)[C@H]2CC[C@H](Oc3cnccn3)CC2)c(C(=O)O)s1` [Compound 2, 5-(3,3-Dimethyl-but-1-ynyl)-3-{(trans-4-methyl-cyclohexanecarbonyl)-[trans-4-(pyrazin-2-yloxy)-cyclohexyl]-amino}-thiophene-2-carboxylic acid] came in with an inhibition at 2 µM of 99.6%.

As to `CC(C)(C)C#Cc1cc(N(C(=O)[C@H]2CC[C@H](C)CC2)C2CCN(S(=O)(=O)c3nnc[nH]3)CC2)c(C(=O)O)s1` [Compound 202, 5-(3,3-Dimethyl-but-1-ynyl)-3-{(4-methyl-cyclohexanecarbonyl)-[1-(4H-[1,2,4]triazole-3-sulfonyl)-piperidin-4-yl]-amino}-thiophene-2-carboxylic acid], at 2 µM the inhibition was 96.4%.

Turning to `CC(C)(C)C#Cc1cc(N(C(=O)[C@H]2CC[C@H](C)CC2)[C@H]2CC[C@H](O[C@H]3COC[C@@H]3O)CC2)c(C(=O)O)s1` [Compound 318, 5-(3,3-Dimethyl-but-1-ynyl)-3-[[4-(4-trans-hydroxy-tetrahydro-furan-3-yloxy)-cyclohexyl]-(4-methyl-cyclohexanecarbonyl)-amino]-thiophene-2-carboxylic acid], the inhibition at 2 µM was found to be 99.7%.

Compound `CN(C)Cc1ccnc(O[C@H]2CC[C@H](N(c3cc(C#CC(C)(C)C(F)(F)F)sc3C(=O)O)C(=O)[C@H]3CC[C@H](C)CC3)CC2)c1` [Compound 341, 3-((1r,4R)—N-((1r,4R)-4-(4-((dimethylamino)methyl)pyridin-2-yloxy)cyclohexyl)-4-methylcyclohexanecarboxamido)-5-(4,4,4-trifluoro-3,3-dimethylbut-1-ynyl)thiophene-2-carboxylic acid] yielded an inhibition at 2 µM of 100%.

In turn, `CC(C)(C)C#Cc1cc(N(C(=O)[C@H]2CC[C@H](C)CC2)[C@H]2CCN(S(=O)(=O)c3cccs3)C2)c(C(=O)O)s1` [Compound 213, 5-(3,3-Dimethyl-but-1-ynyl)-3-{(4-methyl-cyclohexanecarbonyl)-[1-(thiophene-2-sulfonyl)-pyrrolidin-3-yl]-amino}-thiophene-2-carboxylic acid] displayed an inhibition at 2 µM of 99.9%.

In the case of `CC(C)(C)C#Cc1cc(N(C(=O)[C@H]2CC[C@H](C)CC2)[C@H]2CC[C@H](Oc3ccc(=O)[nH]n3)CC2)c(C(=O)O)s1` [Compound 14, 5-(3,3-Dimethyl-but-1-ynyl)-3-{(trans-4-methyl-cyclohexanecarbonyl)-[trans-4-(6-oxo-1,6-dihydropyridazin-3-yloxy)-cyclohexyl]-amino}-thiophene-2-carboxylic acid], the inhibition at 2 µM stood at 100%.

In turn, `Cc1ccc(O[C@H]2CC[C@H](N(c3cc(C#CC(C)(C)C)sc3C(=O)O)C(=O)[C@H]3CC[C@H](C)CC3)CC2)nn1` [Compound 3, 5-(3,3-Dimethyl-but-1-ynyl)-3-{(trans-4-methyl-cyclohexanecarbonyl)-[trans-4-(6-methyl-pyridazin-3-yloxy)-cyclohexyl]-amino}-thiophene-2-carboxylic acid] registered an inhibition at 2 µM of 100%.

Consider `CN(C)Cc1csc(OC2CCC(N(c3cc(C#CC(C)(C)C)sc3C(=O)O)C(=O)[C@H]3CC[C@H](C)CC3)CC2)n1` (stereo partly drawn) [Compound 156, 3-(N-(4-(4-((Dimethylamino)methyl)thiazol-2-yloxy)cyclohexyl)-4-methylcyclohexanecarboxamido)-5-(3,3-dimethylbut-1-ynyl)thiophene-2-carboxylic acid], for which the inhibition at 2 µM came out at 100%.

The compound `CC1=CCC(C(=O)N(c2cc(C#CC(C)(C)C)sc2C(=O)O)[C@H]2CC[C@H](O[C@H]3CCOC3)CC2)[C@@H](C)C1` (stereo partly drawn) [Compound 301, 5-(3,3-dimethyl-but-1-ynyl)-3-{(4,6S-dimethyl-cyclohex-3-enecarbonyl)-[4-(tetrahydro-furan-3S-yloxy)-trans-cyclohexyl]-amino}-thiophene-2-carboxylic acid] yielded an inhibition at 2 µM of 99.8%.

In turn, `CC1=CCC(C(=O)N(c2cc(C#CC(C)(C)C)sc2C(=O)O)[C@H]2CC[C@H](O[C@@H]3CCOC3)CC2)[C@H](C)C1` (single isomer, unassigned) [Compound 305, 5-(3,3-dimethyl-but-1-ynyl)-3-{(4,6R-dimethyl-cyclohex-3-enecarbonyl)-[4-(tetrahydro-furan-3R-yloxy)-trans-cyclohexyl]-amino}-thiophene-2-carboxylic acid] gave an inhibition at 2 µM of 100%.

For `Cc1ccc(O[C@H]2CC[C@H](N(c3cc(C#CC(C)(C)C)sc3C(=O)O)C(=O)[C@H]3CC[C@H](C)CC3)CC2)cn1` [Compound 7, 5-(3,3-Dimethyl-but-1-ynyl)-3-{(trans-4-methyl-cyclohexanecarbonyl)-[trans-4-(6-methyl-pyridin-3-yloxy)-cyclohexyl]-amino}-thiophene-2-carboxylic acid], at 2 µM the inhibition was 99.8%.

Take `CC(C)(C)C#Cc1cc(N(C(=O)[C@H]2CC[C@H](C)CC2)C2CCN(S(=O)(=O)c3ccccn3)CC2)c(C(=O)O)s1` [Compound 209, 5-(3,3-Dimethyl-but-1-ynyl)-3-{(4-methyl-cyclohexanecarbonyl)-[1-(pyridine-2-sulfonyl)-piperidin-4-yl]-amino}-thiophene-2-carboxylic acid]: the inhibition at 2 µM was 100%.

On to `Cn1nnnc1S[C@H]1CC[C@H](N(c2cc(C#CC(C)(C)C)sc2C(=O)O)C(=O)[C@H]2CC[C@H](C)CC2)CC1` [Compound 101, 5-(3,3-Dimethylbut-1-ynyl)-3-(4-methyl-N-(4-(1-methyl-1H-tetrazol-5-ylthio)cyclohexyl)cyclohexanecarboxamido)thiophene-2-carboxylic acid], for which the inhibition at 2 µM was determined as 100%.

As to `CC(C)(C)C#Cc1cc(N(C(=O)[C@H]2CC[C@H](C)CC2)[C@H]2CC[C@H](Oc3ccccn3)CC2)c(C(=O)O)s1` [Compound 1, 5-(3,3-Dimethyl-but-1-ynyl)-3-{(trans-4-methyl-cyclohexanecarbonyl)-[trans-4-(pyridin-2-yloxy)-cyclohexyl]-amino}-thiophene-2-carboxylic acid], the inhibition at 2 µM worked out at 99.8%.

`CC(C)(C)C#Cc1cc(N(C(=O)[C@H]2CC[C@H](C)CC2)[C@H]2CC[C@H](Oc3cccc(C#N)n3)CC2)c(C(=O)O)s1` [Compound 13, 3-[[trans-4-(6-Cyano-pyridin-2-yloxy)-cyclohexyl]-(trans-4-methyl-cyclohexanecarbonyl)-amino]-5-(3,3-dimethyl-but-1-ynyl)-thiophene-2-carboxylic acid]: at 2 µM the inhibition was 99.3%.

As for `CC(C)(C)C#Cc1cc(N(C(=O)[C@H]2CC[C@H](C)CC2)[C@H]2CC[C@H](O[C@H]3COC[C@H]3O)CC2)c(C(=O)O)s1` [Compound 317, 5-(3,3-dimethyl-but-1-ynyl)-3-[[4-(4-cis-hydroxy-tetrahydro-furan-3-yloxy)-cyclohexyl]-(4-methyl-cyclohexanecarbonyl)-amino]-thiophene-2-carboxylic acid], testing at 2 µM gave an inhibition of 100%.

The compound `CC(C)(C)C#Cc1cc(N(C(=O)[C@H]2CC[C@H](C)CC2)[C@H]2CC[C@H](O[C@H]3CCOC3)CC2)c(C(=O)O)s1` [Compound 331, 5-(3,3-Dimethyl-but-1-ynyl)-3-{(trans-4-methyl-cyclohexanecarbonyl)-[4-(tetrahydro-furan-3(S)-yloxy)-trans-cyclohexyl]-amino}-thiophene-2-carboxylic acid] registered an inhibition at 2 µM of 100%.

`Cn1nc(O[C@H]2CC[C@@H](N(c3cc(C#CC(C)(C)C)sc3C(=O)O)C(=O)[C@H]3CC[C@H](C)CC3)CC2)ccc1=O` [Compound 173, Sodium 5-(3,3-dimethylbut-1-ynyl)-3-(4-methyl-N-(4-(1-methyl-6-oxo-1,6-dihydropyridazin-3-yloxy)cyclohexyl)cyclohexanecarboxamido)thiophene-2-carboxylate] registered an inhibition at 2 µM of 100%.

The compound `CCn1ccnc1S[C@H]1CC[C@H](N(c2cc(C#CC(C)(C)C)sc2C(=O)O)C(=O)[C@H]2CC[C@H](C)CC2)CC1` [Compound 89, 5-(3,3-Dimethylbut-1-ynyl)-3-(N-(4-(1-ethyl-1H-imidazol-2-ylthio)cyclohexyl)-4-methylcyclohexanecarboxamido)thiophene-2-carboxylic acid] displayed an inhibition at 2 µM of 99.4%.

As for `CC(C)(C)C#Cc1cc(N(C(=O)[C@H]2CC[C@H](C)CC2)[C@H]2CC[C@H](Sc3ccc4ccccc4n3)CC2)c(C(=O)O)s1` [Compound 91, 5-(3,3-Dimethylbut-1-ynyl)-3-(4-methyl-N-(4-(quinolin-2-ylthio)cyclohexyl)cyclohexanecarboxamido)thiophene-2-carboxylic acid], at 2 µM the inhibition was 99.8%.

The assay is the same for the next values; noted with them: Huh-7 HCV replicon cells, 3 days incubation.
As a reminder, the % inhibition is the percentage by which the read-out fell short of the control. `CC1=CCC(C(=O)N(c2cc(C#CC(C)(C)C)sc2C(=O)O)[C@H]2CC[C@H](O[C@@H]3CCOC3)CC2)[C@H](C)C1` (single isomer, unassigned) [Compound 306, 5-(3,3-Dimethyl-but-1-ynyl)-3-{(4,6R-dimethyl-cyclohex-3-enecarbonyl)-[4-(tetrahydro-furan-3R-yloxy)-trans-cyclohexyl]-amino}-thiophene-2-carboxylic acid]: the “% inhibition at 2μM” value turned out to be 99.99%.

For the origin of these results see US8569302B2, “Inhibitors of flaviviridae viruses” (Gilead Sciences, Inc., priority 2009, dated 2013).
